One experiment relates to HSV-1. Kind of experiment: HSV Antiviral (ELISA) Assay. In kind it is cell-based, herpes simplex virus type 1. Conditions: Human alphaherpesvirus 1, Vero cells, HSV-1, about 24 hours post-infection, read-out: IC50 (ug/ml) HSV. How it is done: Vero cells (ATCC #CCL-81) are plated on 96-well tissue culture plates at 3.5×10^4 cells per 100 μl tissue culture DMEM (Dulbecco's modified Eagle media) supplemented with 2% fetal bovine serum (FBS) in each well. After overnight incubation @37° C. (in 5% CO2) and 30 minutes prior to infection with HSV-1 (multiplicity of infection equal to 0.006), cells are either untreated, or treated with test compound (multiple concentrations) or reference standard drug control. After approximately 24 hours post-infection incubation @37° C. (in 5% CO2), cells are fixed for ELISA assay. The primary antibody is murine anti-HSV glycoprotein D monoclonal primary antibody and the secondary antibody is goat anti-mouse IgG linked to β-galactosidase. Thus the extent of viral replication is determined by assessing β-galactosidase activity by quantifying the generation of the 4-methyl umbelliferone fluorescent cleavage product after addition of the methyl umbelliferyl-β-D-galactoside (Sigma #M1633) substrate on a microfluorimeter (365 nm for excitation and 450 nm for emission). Antiviral activity (IC50) of the test compound is determined by comparing the flourescence obtained in absence of compound to that obtained in the presence of compound.
On the technique in general: In an ELISA, binding on a coated surface is turned into a signal by an enzyme label.

A further experiment relates to VZV strain Ellen. In words: VZV Antiviral (ELISA) Assay. To be noted: Human alphaherpesvirus 3, 72 h; for IC50: human foreskin fibroblast cells, three days, read-out: IC50 (ug/ml) VZV; for inhibition at 10 µg/mL: read-out: % inhibition 10 ug/ml VZV, 10 ug/ml, human foreskin fibroblast cells, three days. The class given is cell-based, varicella-zoster virus. The protocol:
For the generation of stock VZV to be used in the assay, VZV strain Ellen (ATCC #VR-1367) is used to infect human foreskin fibroblast (HFF) cells at low multiplicity (less than 0.1) and incubated overnight at 37° C. in 5% CO2. After the overnight incubation, the mixture of uninfected and VZV-infected HFF infected cells are then harvested and added to each well of 96-well plates (3.5×10^4 cells in 100 1μl DMEM supplemented with 2% FBS) which contain test compound or the reference standard drug control (in 100 μl DMEM supplemented with 2% FBS per well). These cells are incubated for three days at 37° C. in 5% CO2, then fixed for ELISA assay. The primary antibody is murine anti-VZV glycoprotein II monoclonal antibody (Applied Biosystems, Inc. #13-145-100) and the secondary antibody is goat anti-mouse IgG linked to β-galactosidase. Thus the extent of viral replication is determined by assessing β-galactosidase activity by quantifying the generation of the 4-methyl umbelliferone fluorescent cleavage product after addition of the methyl umbelliferyl-β-D-galactoside (Sigma #M1633) substrate on a microfluorimeter (365 nm for excitation 450 nm for emission). Antiviral activity (IC50) of the test compound is determined by comparing the flourescence obtained in absence of compound to that obtained the presence of compound.

Another experiment concerns HCMV wild-type. In words: HCMV yield assay. Conditions: Human betaherpesvirus 5, Fibroblast; human foreskin fibroblasts; reduction of virus yield by 50%; read-out: IC50 (ug/ml) HCMV. In kind it is cell-based, human cytomegalovirus. The protocol:
Yield assay. Monolayer cultures of human foreskin fibroblasts are infected with HCMV wild-type, typically at a multiplicity of infection equal to 0.2, in the presence of inhibitor compound (varying concentrations). At three days post-infection, total virus produced in these cultures (i.e. virus yield) is assessed by harvesting and titering the virus in 12-well plates of cultured human foreskin fibroblasts (done in the absence of inhibitor). Plaques are quantified at 2 weeks post-infection. An inhibitor of HCMV is identified by the reduction in titer of virus yield in the presence, compared to the titer in the absence of compound. In this assay, the relative anti-HCMV activity of an inhibitor is typically determined by calculating the IC50 or IC90 value, that is, the amount of compound required to reduce the virus yield by 50% or 90%, respectively. Table I describes IC50 data for compounds tested against HCMV.

In brackets after ≈: the same amount, converted by molar mass. Some results are limits rather than exact numbers.

As for `O=C(Nc1ccc(NC(=S)Nc2ccncc2)cc1)c1ccccc1F` [Example 444, 2-Fluoro-N-[4-(3-pyridin-4-yl-thioureido)-phenyl]-benzamide], the IC50 in the experiment with HSV-1 was 8 µg/mL (≈ 21.8 µM); in the experiment on VZV strain Ellen, over 10 µg/mL; in the experiment on HCMV wild-type, 4 µg/mL (≈ 10.9 µM). In addition, the inhibition at 10 µg/mL with VZV strain Ellen was 0%.
With `CC(C)(C)n1ccnc1NC(=S)Nc1ccc(NC(=O)c2csnn2)cc1` [Example 608, [1,2,3]Thiadiazole-4-carboxylic acid {4-[3-(1-tert-butyl-1H-imidazol-2-yl)-thioureido]-phenyl}-amide], the IC50 in the experiment with HSV-1 is 9 µg/mL (≈ 22.4 µM); in the experiment on VZV strain Ellen, over 10 µg/mL; with HCMV wild-type, over 0.5 µg/mL.
For `CC(NC(=S)Nc1ccc(NC(=O)c2ccccc2F)cc1)c1ccnc2ccccc12` (stereo not shown) [Example 1096, 2-Fluoro-N-{4-[3-(1-quinolin-4-yl-ethyl)-thioureido]-phenyl}-benzamide] the same measures were over 10 µg/mL, 6.7 µg/mL (≈ 15.1 µM) and 5.7 µg/mL (≈ 12.8 µM).
For `O=C(Nc1ccc(NC(=S)Nc2ccc3[nH]ncc3c2)cc1)c1ccccc1F` [Example 483, 2-Fluoro-N-{4-[3-(1H-indazol-5-yl)-thioureido]-phenyl}-benzamide], the IC50 in the experiment on HSV-1 is 1.2 µg/mL (≈ 2.96 µM); in the experiment with VZV strain Ellen, over 10 µg/mL; in the experiment on HCMV wild-type, 5 µg/mL (≈ 12.3 µM). Further, the inhibition at 10 µg/mL in the experiment with VZV strain Ellen came to 45%.
On to `CC(C)(C)n1ccnc1NC(=S)Nc1ccc(NC(=O)c2ccco2)cc1` [Example 609, Furan-2-carboxylic acid {4-[3-(1-tert-butyl-1H-imidazol-2-yl)-thioureido]-phenyl}-amide], for which the IC50 in the experiment with HSV-1 is 8 µg/mL (≈ 20.9 µM); in the experiment on VZV strain Ellen, over 10 µg/mL; in the experiment on HCMV wild-type, 1.5 µg/mL (≈ 3.91 µM).
As for `O=C(Nc1ccc(NC(=S)Nc2ccncc2)cc1)c1ccco1` [Example 427, Furan-2-carboxylic acid [4-(3-pyridin-4-yl-thioureido)-phenyl]-amide], the IC50 in the experiment on HSV-1 was over 10 µg/mL; in the experiment on VZV strain Ellen it was 1.2 µg/mL (≈ 3.55 µM); in the experiment on HCMV wild-type, 0.8 µg/mL (≈ 2.36 µM). In addition, the inhibition at 10 µg/mL in the experiment with VZV strain Ellen was found to be 21%.
In the case of `Cc1ccc(S(=O)(=O)n2c(C(C)NC(=S)Nc3ccc(NC(=O)c4ccccc4F)cc3)cc3ccccc32)cc1` (stereo not shown) [Example 1094, 2-Fluoro-N-[4-(3-{1-[1-(toluene-4-sulfonyl)-1H-indol-2-yl]-ethyl}-thioureido)-phenyl]-benzamide], the IC50 was over 10 µg/mL in the experiment with HSV-1, over 7.5 µg/mL with VZV strain Ellen and over 10 µg/mL in the experiment on HCMV wild-type.
Turning to `O=C(Nc1ccc(NC(=S)Nc2cncc(Br)c2)cc1)c1csnn1` [Example 525, [1,2,3]Thiadiazole-4-carboxylic acid {4-[3-(5-bromo-pyridin-3-yl)-thioureido]-phenyl}-amide], the IC50 is 2.5 µg/mL (≈ 5.74 µM) in the experiment with HSV-1, over 10 µg/mL in the experiment on VZV strain Ellen and 0.018 µg/mL (≈ 0.0413 µM) in the experiment with HCMV wild-type. In the experiment on VZV strain Ellen, the inhibition at 10 µg/mL came out at 39%.
For the molecule `CC(NC(=S)Nc1ccc(NC(=O)c2ccccc2F)cc1)c1ccco1` (stereo not shown) [Example 802, 2-Fluoro-N-{4-[3-(1-furan-2-yl-ethyl)-thioureido]-phenyl}-benzamide], the IC50 is over 10 µg/mL in the experiment on HSV-1, 7.3 µg/mL (≈ 19 µM) in the experiment with VZV strain Ellen and over 10 µg/mL in the experiment with HCMV wild-type.
`CC(NC(=S)Nc1ccc(NC(=O)c2ccccc2F)cc1)c1nccc2ccccc12` (stereo not shown) [Example 1098, 2-Fluoro-N-{4-[3-(1-isoquinolin-1-yl-ethyl)-thioureido]-phenyl}-benzamide]: the IC50 in the experiment on HSV-1 stood at 9 µg/mL (≈ 20.2 µM); with VZV strain Ellen, 3.8 µg/mL (≈ 8.55 µM); with HCMV wild-type, 3.5 µg/mL (≈ 7.87 µM).
For `CC(NC(=S)Nc1ccc(NC(=O)c2ccccc2F)cc1)c1ccncc1` (stereo not shown) [Example 803, 2-Fluoro-N-{4-[3-(1-pyridin-4-yl-ethyl)-thioureido]-phenyl}-benzamide] the same measures were over 10 µg/mL, over 7.5 µg/mL and over 10 µg/mL.
The corresponding values for `CC(NC(=S)Nc1ccc(NC(=O)c2ccccc2F)cc1)c1ccsc1` (stereo not shown) [Example 805, 2-Fluoro-N-{4-[3-(1-thiophen-3-yl-ethyl)-thioureido]-phenyl}-benzamide] are over 10 µg/mL, 1.6 µg/mL (≈ 4 µM) and 8 µg/mL (≈ 20 µM).

The values are drawn from US6380243B1, “Aminopyridine-containing thiourea inhibitors of herpes viruses” (American Home Products Corporation, priority 1998, dated 2002).
